The results in this text go back to patent US20080269317A1, “Compounds for Covalent Binding to MD-2 and Effect on the Immune Response” (priority 2005, published 2008).

For experiment [1], the system named is MonoMac6 cells. Briefly: Activation of MonoMac6 cells without LPS, monitored through secreted TNF-alpha (ELISA). To be noted: different concentrations of IAANS, no LPS; supernatant after 20 hours. The experiment is classed as cell-based, human. The source says:
The activation of the host innate immune system can have an important role for the treatment of diseases such as microbial infections, cancer and other diseases, where the participation of the innate immunity system is important. It is important that the compound, which activates the innate immune system has no other effects. If the compound activates the cells of the innate immunity, the same cytokines are secreted as by the activation with LPS, so the same assay can be used. For the assay we have used human monocytic cells MonoMac6. Into the 96-well plate we seeded 1×10^5 cells per well in the media for MonoMac6 cells. We added 50 ng/ml of phorbol 12-myristate […] (Sigma), which is needed for differentiation of cells into macrophages. Then we added different concentrations of IAANS and incubated. 20 hours after the stimulation we took the cell supernatants, centrifuged for 3 min at 13 000 rpm and performed ELISA test for TNF-alpha.
To MonoMac6 cells we added different concentrations of IAANS. […] Cells secreted TNF-alpha, which stimulates the innate immune response, which is important for the acquired immunity at vaccination or treatment of disease such as cancer, where the activation of host immune response is desirable. […]
For orientation: An ELISA detects its analyte on a solid surface through an enzyme-linked reagent.

Experiment [2] deals with T1, MD-2 (Homo sapiens, UniProt Q9Y6Y9).
T1 construct: made in house; host or cells: Escherichia coli
T1 sequence (Q9Y6Y9 19-160): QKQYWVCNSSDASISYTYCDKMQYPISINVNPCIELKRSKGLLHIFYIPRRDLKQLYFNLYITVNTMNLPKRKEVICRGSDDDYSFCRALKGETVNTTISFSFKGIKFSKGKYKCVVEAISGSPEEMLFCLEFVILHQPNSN
Description: Binding to MD-2 monitored through the increase of the fluorescence (spectrofluorimeter). To be noted: 100 nM MD-2 added to 200 nM compound in milliQ water, 25° C., time dependent. The source says:
In the first example of the invention we used recombinant MD-2 produced in bacteria Escherichia coli to test the binding of the compounds, which contain a hydrophobic group and a group, which binds to the cysteine residue. This protein has biological activity as endogenous MD-2 and added protein enables response to LPS to cells lacking endogenous MD-2. We tested binding of compounds 2-(4′-(iodoacetamido)anilino)naphthalene-6-sulfonic acid (IAANS) and N-(1-pyrene)maleimide, which in addition to the above mentioned properties also have the additional feature of fluorescence, which makes them useful to show the principle of the invention. […] Change of the environment, which is a result of binding of the compound into the hydrophobic pocket, causes an increase of the fluorescence intensity of compounds, which is detected by measuring the emission fluorescence spectra using the spectrofluorimeter. […]
IAANS (Molecular Probes, USA) is an example of a compound with an alkylhalide group, which is reactive with a thiol group, an anilinonaphthalene group as a hydrophobic group and a sulfonic group as an anionic group. […] IAANS concentration was determined by measuring the absorbance at 326 nm in methanol (extinction coefficient at 326 nm in methanol is 27 000 cm^−1M^−1). […] Binding to MD-2 increases the fluorescence intensities of both compounds. […]

Experiment [3] deals with MonoMac6 cells. Description: Inhibition of TNF-alpha synthesis (ELISA) in MonoMac6 cells stimulated with LPS. Format: cell-based, human. To be noted: different concentrations of IAANS, 1 hour, then 20 ng/ml LPS; supernatant after 20 hours. The source says:
The effect of certain compound on the cell activation by LPS can also be detected by determination of the amount of cytokines, which are released by the cell activation. Addition of LPS to macrophage cells (or other cells, which normally express MD-2 and TLR4) causes the secretion of inflammatory cytokines such as TNF-alpha, IL-1, IL-8 . . . […] The amount of cytokines released into the media can be determined by the ELISA test. For the experiment we used monocytic cells MonoMac6. To 96-well plate we seeded 1×10^5 cells per well in media for MonoMac6 cells (RPMI with 10% FBS, nonessential aminoacids and OPI (both from Sigma)). 50 ng/ml of phorbol 12-myristate […] (Sigma) needed for differentiation into macrophages was added to cells. IAANS was added at different concentrations and incubated 1 hour, followed by the addition of 20 ng/ml LPS. 20 hours after the stimulation we took the supernatant, centrifuged it for 3 min on 13 000 rpm and performed the ELISA test for TNF-alpha.
To MonoMac6 cells, which express MD-2 and TLR4, we added different concentrations of IAANS and LPS and determined the concentration of TNF-alpha in media using the ELISA test.

The target of experiment [4] is T1, MD-2. Briefly: Covalent binding to MD-2: fluorescence after GdnHCl denaturation and acetone precipitation, with or without iodoacetamide blocking. The protocol:
In the second example of the invention we show, that binding of the compound to MD-2 is irreversible, therefore after binding to MD-2, compound remains permanently bound to the protein and therefore prevent binding of LPS or other ligands to MD-2.
The compounds with features mentioned above covalently bind to MD-2. The binding experiment was performed by adding to the concentration of MD-2 two times concentration excess of N-(1-pyrene) maleimide and incubated one hour at room temperature in the dark. The compound, which nonspecifically (noncovalently) bound to MD-2 was released from the protein by denaturation of the protein in 6 M guanidinium hydrochloride (GdnHCl). To the dissolved denatured protein we added five volumes of chilled (−20° C.) acetone and incubated for additional 60 min at −20° C. Then we centrifuged for 10 min at 13 000 rpm. […] The precipitate was dissolved in […] of 6 M GdnHCl and fluorescence emission spectrum was measured with excitation at 338 nm (FIG. 2). […] Binding of iodoacetamide inhibited binding of a compound to free cysteine residue on MD-2, which can be detected by lower fluorescence intensity of the compound.
We compared the fluorescence of MD-2, incubated with N-(1-pyrene) maleimide and to MD-2, with said compound, where we have previously added iodoacetamide for blocking free cysteine residues.

On to `O=C(CI)Nc1ccc(Nc2ccc3cc(S(=O)(=O)O)ccc3c2)cc1` [IAANS, 2-(4′-(iodoacetamido)anilino)naphthalene-6-sulfonic acid], for which the “activation of MonoMac6 cells (secreted TNF-alpha)” value in the experiment on MonoMac6 cells [1] is recorded as “activated the cells in the concentration dependent manner”. Moreover, the “change of the fluorescence intensity at emission maximum after addition of MD-2” value on MD-2 [2] is “increase of the IAANS fluorescence after binding to MD-2”. In addition, in the experiment on MonoMac6 cells [3], the “inhibition of LPS dependent synthesis of TNF-alpha” value is given as “inhibited LPS dependent synthesis of TNF-alpha in a concentration-dependent manner”.
Regarding `O=C1C=CC(=O)N1c1ccc2ccc3cccc4ccc1c2c34` [N-(1-pyrene) maleimide, N-(1-pyrene)maleimide], on MD-2 [4] (two times excess of compound, one hour at room temperature, denaturation in 6 M GdnHCl, acetone precipitation, excitation 338 nm), the “covalent (irreversible) binding to MD-2: emission spectrum preserved in 6 M GdnHCl” value was “irreversibly bound to MD-2”. Further, the “change of the fluorescence intensity at emission maximum after addition of MD-2” value at MD-2 [2] is reported as “increase of the N-(1-pyrene) maleimide fluorescence after binding to MD-2”.
Regarding `NC(=O)CI` [iodoacetamide, reference compound], on MD-2 [4] (five molar excess of iodoacetamide added beforehand to block free cysteine residues), the “effect of previous incubation with iodoacetamide on binding of N-(1-pyrene) maleimide to MD-2” value was “inhibited binding of N-(1-pyrene) maleimide to MD-2”.
